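Values below derive from 48-hour exposures of cells grown in 96-well plates, with endpoints linearly interpolated between the two concentrations bracketing the appropriate inhibition level. GI50: concentration for 50% inhibition of growth. The concentration for full growth arrest is given as TGI.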
Assays:
Experiment in all cases: growth of human tumour cells (NCI), 48 h
HCC-2998 colon = test system: HCC-2998 colon
CAKI-1 renal = test system: CAKI-1 renal
SF-539 CNS = test system: SF-539 CNS
KM12 colon = test system: KM12 colon
UO-31 renal = test system: UO-31 renal
HCT-15 colon = test system: HCT-15 colon
SNB-75 CNS = test system: SNB-75 CNS
SN12C renal = test system: SN12C renal
SK-MEL-28 melanoma = test system: SK-MEL-28 melanoma
DU-145 prostate = test system: DU-145 prostate
NCI/ADR-RES ovarian = test system: NCI/ADR-RES ovarian
BT-549 breast = test system: BT-549 breast
SF-295 CNS = test system: SF-295 CNS
OVCAR-8 ovarian = test system: OVCAR-8 ovarian
RPMI-8226 leukemia = test system: RPMI-8226 leukemia
MDA-MB-435 = test system: MDA-MB-435
OVCAR-5 ovarian = test system: OVCAR-5 ovarian
ACHN renal = test system: ACHN renal
PC-3 prostate = test system: PC-3 prostate
SNB-19 CNS = test system: SNB-19 CNS
MOLT-4 leukemia = test system: MOLT-4 leukemia
COLO 205 colon = test system: COLO 205 colon
MCF7 breast = test system: MCF7 breast
SK-MEL-5 melanoma = test system: SK-MEL-5 melanoma
MALME-3M melanoma = test system: MALME-3M melanoma
SF-268 CNS = test system: SF-268 CNS
SW-620 colon = test system: SW-620 colon
CCRF-CEM leukemia = test system: CCRF-CEM leukemia
HCT-116 colon = test system: HCT-116 colon
M14 melanoma = test system: M14 melanoma
IGROV1 ovarian = test system: IGROV1 ovarian
UACC-257 melanoma = test system: UACC-257 melanoma
786-0 renal = test system: 786-0 renal
TK-10 renal = test system: TK-10 renal
U251 CNS = test system: U251 CNS
SK-OV-3 ovarian = test system: SK-OV-3 ovarian
NCI-H460 lung = test system: NCI-H460 lung
OVCAR-4 ovarian = test system: OVCAR-4 ovarian
OVCAR-3 ovarian = test system: OVCAR-3 ovarian
A549 NSCLC = test system: A549 NSCLC
NCI-H23 lung = test system: NCI-H23 lung
EKVX NSCLC = test system: EKVX NSCLC
A498 renal = test system: A498 renal
NCI-H226 lung = test system: NCI-H226 lung
HOP-92 NSCLC = test system: HOP-92 NSCLC
RXF 393 renal = test system: RXF 393 renal
LOX IMVI melanoma = test system: LOX IMVI melanoma
NCI-H522 lung = test system: NCI-H522 lung
UACC-62 melanoma = test system: UACC-62 melanoma
HS 578T breast = test system: HS 578T breast
SK-MEL-2 melanoma = test system: SK-MEL-2 melanoma
HT29 colon = test system: HT29 colon
T-47D breast = test system: T-47D breast
HOP-62 NSCLC = test system: HOP-62 NSCLC
K-562 leukemia = test system: K-562 leukemia
HL-60(TB) leukemia = test system: HL-60(TB) leukemia
MDA-MB-231 breast = test system: MDA-MB-231 breast
SR leukemia = test system: SR leukemia

**Q.** How did the GI50 (HCC-2998 colon) turn out when CC(=O)O[C@H]1CC[C@]2(C)[C@H]3CC=C4[C@@H]5CC(C)(C)CC[C@]5(C(=O)NCCNCCN)CC[C@@]4(C)[C@]3(C)CC[C@H]2C1(C)C was run?
**A.** 0.624 µM

**Q.** And the TGI (HCC-2998 colon)?
**A.** 2.12 µM

**Q.** What about the GI50 (CAKI-1 renal) of the same molecule?
**A.** 1.25 µM

**Q.** What about the TGI (CAKI-1 renal) of the same molecule?
**A.** 2.59 µM

**Q.** What about the GI50 (SF-539 CNS) of the same molecule?
**A.** 1.51 µM

**Q.** And the TGI (SF-539 CNS)?
**A.** 2.94 µM

**Q.** What about the GI50 (KM12 colon) of the same molecule?
**A.** 1.64 µM

**Q.** What about the TGI (KM12 colon) of the same molecule?
**A.** 3.17 µM

**Q.** And the GI50 (UO-31 renal)?
**A.** 1.28 µM

**Q.** And the TGI (UO-31 renal)?
**A.** 2.76 µM

**Q.** And the GI50 (HCT-15 colon)?
**A.** 0.282 µM

**Q.** What about the TGI (HCT-15 colon) of the same molecule?
**A.** 0.895 µM

**Q.** And the GI50 (SNB-75 CNS)?
**A.** 1.36 µM

**Q.** What about the TGI (SNB-75 CNS) of the same molecule?
**A.** 2.65 µM

**Q.** What about the GI50 (SN12C renal) of the same molecule?
**A.** 1.67 µM

**Q.** And the TGI (SN12C renal)?
**A.** 3.23 µM

**Q.** And the GI50 (SK-MEL-28 melanoma)?
**A.** 1.71 µM

**Q.** What about the TGI (SK-MEL-28 melanoma) of the same molecule?
**A.** 3.23 µM

**Q.** And the GI50 (DU-145 prostate)?
**A.** 1.29 µM

**Q.** And the TGI (DU-145 prostate)?
**A.** 2.74 µM

**Q.** What about the GI50 (NCI/ADR-RES ovarian) of the same molecule?
**A.** 1.65 µM

**Q.** And the TGI (NCI/ADR-RES ovarian)?
**A.** 3.65 µM

**Q.** What about the GI50 (BT-549 breast) of the same molecule?
**A.** 1.68 µM

**Q.** What about the TGI (BT-549 breast) of the same molecule?
**A.** 3.3 µM

**Q.** What about the GI50 (SF-295 CNS) of the same molecule?
**A.** 1.77 µM

**Q.** What about the TGI (SF-295 CNS) of the same molecule?
**A.** 3.25 µM

**Q.** What about the GI50 (OVCAR-8 ovarian) of the same molecule?
**A.** 1.7 µM

**Q.** What about the TGI (OVCAR-8 ovarian) of the same molecule?
**A.** 4.27 µM

**Q.** And the GI50 (RPMI-8226 leukemia)?
**A.** 1.2 µM

**Q.** And the TGI (RPMI-8226 leukemia)?
**A.** 3.52 µM

**Q.** And the GI50 (MDA-MB-435)?
**A.** 1.34 µM

**Q.** And the TGI (MDA-MB-435)?
**A.** 2.65 µM

**Q.** And the GI50 (OVCAR-5 ovarian)?
**A.** 1.64 µM

**Q.** What about the TGI (OVCAR-5 ovarian) of the same molecule?
**A.** 3.09 µM

**Q.** What about the GI50 (ACHN renal) of the same molecule?
**A.** 0.196 µM

**Q.** And the TGI (ACHN renal)?
**A.** 0.388 µM

**Q.** And the GI50 (PC-3 prostate)?
**A.** 1.1 µM

**Q.** What about the TGI (PC-3 prostate) of the same molecule?
**A.** 2.43 µM

**Q.** Which results are given for COc1cc(Cn2ccc3c2-c2oncc2CC3)cc(OC)c1?
**A.** GI50 (SNB-19 CNS): 5.89 µM; TGI (SNB-19 CNS): > 100 µM; GI50 (MOLT-4 leukemia): 4.09 µM; TGI (MOLT-4 leukemia): > 100 µM; GI50 (COLO 205 colon): 3.7 µM; TGI (COLO 205 colon): 17.3 µM; GI50 (HCC-2998 colon): 7.13 µM; TGI (HCC-2998 colon): 90.1 µM; GI50 (MCF7 breast): 2.2 µM; TGI (MCF7 breast): > 100 µM; GI50 (SK-MEL-5 melanoma): 2.75 µM; TGI (SK-MEL-5 melanoma): 10.4 µM; GI50 (MALME-3M melanoma): 4.25 µM; TGI (MALME-3M melanoma): 37.9 µM; GI50 (CAKI-1 renal): 2.79 µM; TGI (CAKI-1 renal): 39.5 µM; GI50 (SF-539 CNS): 2.8 µM; TGI (SF-539 CNS): 21.4 µM; GI50 (KM12 colon): 2.02 µM; TGI (KM12 colon): 28.5 µM; GI50 (SF-268 CNS): 10.1 µM; TGI (SF-268 CNS): > 100 µM; GI50 (UO-31 renal): 6.09 µM; TGI (UO-31 renal): 41.6 µM; GI50 (SW-620 colon): 2.18 µM; TGI (SW-620 colon): > 100 µM; GI50 (CCRF-CEM leukemia): 3.74 µM; TGI (CCRF-CEM leukemia): > 100 µM; GI50 (HCT-15 colon): 3.03 µM; TGI (HCT-15 colon): > 100 µM; GI50 (HCT-116 colon): 3.49 µM; TGI (HCT-116 colon): 26.6 µM; GI50 (M14 melanoma): 2.39 µM; TGI (M14 melanoma): 9.45 µM; GI50 (IGROV1 ovarian): 7.44 µM; TGI (IGROV1 ovarian): > 100 µM; GI50 (SNB-75 CNS): 1.9 µM; TGI (SNB-75 CNS): 7.48 µM; GI50 (UACC-257 melanoma): 6.72 µM; TGI (UACC-257 melanoma): 91.1 µM; GI50 (786-0 renal): 6.36 µM; TGI (786-0 renal): 37.1 µM; GI50 (TK-10 renal): 8.04 µM; TGI (TK-10 renal): > 100 µM; GI50 (SN12C renal): 6.99 µM; TGI (SN12C renal): > 100 µM; GI50 (U251 CNS): 4.43 µM; TGI (U251 CNS): 69.3 µM; GI50 (SK-MEL-28 melanoma): 8.75 µM; TGI (SK-MEL-28 melanoma): > 100 µM; GI50 (SK-OV-3 ovarian): 4.79 µM; TGI (SK-OV-3 ovarian): > 100 µM; GI50 (NCI-H460 lung): 3.11 µM; TGI (NCI-H460 lung): 13.3 µM; GI50 (OVCAR-4 ovarian): 16.4 µM; TGI (OVCAR-4 ovarian): > 100 µM; GI50 (OVCAR-3 ovarian): 2.99 µM; TGI (OVCAR-3 ovarian): 9.79 µM; GI50 (DU-145 prostate): 3.99 µM; TGI (DU-145 prostate): > 100 µM; GI50 (A549 NSCLC): 5.23 µM; TGI (A549 NSCLC): > 100 µM; GI50 (NCI-H23 lung): 3.89 µM; TGI (NCI-H23 lung): 52.9 µM; GI50 (EKVX NSCLC): 4.3 µM; TGI (EKVX NSCLC): 56.1 µM; GI50 (A498 renal): 1.16 µM; TGI (A498 renal): 6.99 µM; GI50 (NCI/ADR-RES ovarian): 1.95 µM; TGI (NCI/ADR-RES ovarian): 7.24 µM; GI50 (NCI-H226 lung): 15.5 µM; TGI (NCI-H226 lung): > 100 µM; GI50 (HOP-92 NSCLC): 4.25 µM; TGI (HOP-92 NSCLC): 47 µM; GI50 (SF-295 CNS): 3.05 µM; TGI (SF-295 CNS): 28.8 µM; GI50 (RXF 393 renal): 5.2 µM; TGI (RXF 393 renal): 60 µM; GI50 (LOX IMVI melanoma): 4.83 µM; TGI (LOX IMVI melanoma): > 100 µM; GI50 (OVCAR-8 ovarian): 4.81 µM; TGI (OVCAR-8 ovarian): 46.7 µM; GI50 (NCI-H522 lung): 3.57 µM; TGI (NCI-H522 lung): 40.4 µM; GI50 (RPMI-8226 leukemia): 4.98 µM; TGI (RPMI-8226 leukemia): 50.3 µM; GI50 (UACC-62 melanoma): 3.68 µM; TGI (UACC-62 melanoma): > 100 µM; GI50 (HS 578T breast): 2.38 µM; TGI (HS 578T breast): 12.2 µM; GI50 (MDA-MB-435): 0.369 µM; TGI (MDA-MB-435): 4.03 µM; GI50 (SK-MEL-2 melanoma): 8.29 µM; TGI (SK-MEL-2 melanoma): > 100 µM; GI50 (HT29 colon): 3.17 µM; TGI (HT29 colon): > 100 µM; GI50 (T-47D breast): 3.69 µM; TGI (T-47D breast): 60.2 µM; GI50 (OVCAR-5 ovarian): 10.1 µM; TGI (OVCAR-5 ovarian): > 100 µM; GI50 (HOP-62 NSCLC): 4.4 µM; TGI (HOP-62 NSCLC): > 100 µM; GI50 (K-562 leukemia): 0.594 µM; TGI (K-562 leukemia): > 100 µM; GI50 (HL-60(TB) leukemia): 2.22 µM; TGI (HL-60(TB) leukemia): 8.94 µM; GI50 (ACHN renal): 5.54 µM; TGI (ACHN renal): 97.9 µM; GI50 (MDA-MB-231 breast): 6.58 µM; TGI (MDA-MB-231 breast): 81.4 µM; GI50 (PC-3 prostate): 11 µM; TGI (PC-3 prostate): > 100 µM; GI50 (SR leukemia): 0.851 µM; TGI (SR leukemia): 31.1 µM
